{"source": "patent US11419870B2", "about": "“Intermittent dosing of MDM2 inhibitor” (Novartis AG, priority 2014, dated 2022)", "key": {"Cleaved Caspase-3": {"system": "Cleaved Caspase-3", "experiment": "Caspase-3 activation in SJSA-1 tumor (immunohistochemistry)", "assay_type": "in vivo, nude rat", "settings": "higher single dose; 24 h post-treatment", "method": "(§1) All tissues were processed to FFPE according to routine procedures and following fixation, rat sternum was decalcified in Citrate/EDTA buffer for 5 days, with buffer exchange every 24 h. Sections were cut at 3 μm using a microtome. p21 and cleaved Caspase-3 immunohistochemistry was performed on a Ventana Discovery XT automated immunostainer using the OmniMap anti Mouse or Rabbit HRP secondary reagent and the ChromoMap DAB chromogen system (Ventana/Roche Diagnostics GmbH, Mannheim, Germany). Antigen retrieval was done by using Cell Conditioning Discovery CC1 (Ventana/Roche Diagnostics) at mild (95° 8 min+100° 20 min, for cleaved Caspase-3) or standard (95° 8 min+100° 36 min, for p21) conditions. The primary antibody was applied manually at the desired dilution in Dako antibody diluent, followed by incubation for 1 hour at room temperature. Corresponding negative controls were incubated with AbD only. Counterstaining of sections was done using hematoxylin (Ventana/Roche Diagnostics). After the automated staining run, slides were dehydrated in a graded series of ethanol, cleared in xylene and mounted with Pertex mounting medium."}, "bone marrow": {"system": "bone marrow", "experiment": "Bone marrow depletion and recovery after i.v. treatment (sternum sections)", "assay_type": "in vivo, rat", "settings": "i.v. 20 mg/kg", "method": "as §1"}, "[1]": {"system": "white blood cells (WBC), neutrophils and platelets", "experiment": "White blood cells, neutrophils and platelets count (Sysmex)", "assay_type": "in vivo, nude rat", "source_text": "The white blood cells (WBC), neutrophils and platelets were counted using a Sysmex (XT-2000i).\nBlood was collected into commercially prepared EDTA coated microtubes (BD Microtainer, cat #365975)."}, "[2]": {"system": "melanoma patient derived xenograft (PDX)", "experiment": "Efficacy in melanoma patient derived xenograft bearing rat (per os)", "assay_type": "in vivo", "settings": "27 mg/kg q3w per os", "source_text": "The same experiments were repeated with melanoma PTX bearing rat."}, "[3]": {"settings": "p.o. q3w 27 mg/kg, before the second treatment"}}, "data": [{"smiles": "COc1ncc(-c2nc3c(n2C(C)C)[C@H](c2ccc(Cl)cc2)N(c2cc(Cl)cn(C)c2=O)C3=O)c(OC)n1", "note": "[Compound A, (S)-5-(5-Chloro-1-methyl-2-oxo-1,2-dihydro-pyridin-3-yl)-6-(4-chloro-phenyl)-2-(2,4-dimethoxy-pyrimidin-5-yl)-1-isopropyl-5,6-dihydro-1H-pyrrolo[3,4-d]imidazol-4-one]", "values": [{"measurement": "caspase-3 activation in tumor", "setting": "Cleaved Caspase-3", "value": "strong caspase-3 activation"}, {"measurement": "bone marrow state", "setting": "bone marrow; 14 days post treatment", "value": "severe bone marrow depletion"}, {"measurement": "bone marrow recovery", "setting": "bone marrow; day 22", "value": "partial recovery"}, {"measurement": "recovery of WBCs, neutrophils and platelets", "setting": "[1]; i.v. q3w 18.2 mg/kg, day 21 post second treatment", "value": "only partially recovered"}, {"measurement": "WBCs, neutrophils and platelets", "setting": "[1]; i.v. q3w 20 mg/kg, after the first treatment", "value": "dramatic decrease"}, {"measurement": "WBCs, neutrophils and platelets", "setting": "[1]; i.v. q3w 20 mg/kg, after the second treatment", "value": "extremely low level close to 0"}, {"measurement": "recovery of WBCs, neutrophils and platelets", "setting": "[1]; i.v. q3w 20 mg/kg, day 21 post treatment, most rats", "value": "only partially recovered"}, {"measurement": "WBCs, neutrophils and platelets", "setting": "[1]; i.v. q3w 13.7 and 18.2 mg/kg, after the first treatment", "value": "strong decrease"}, {"measurement": "recovery of WBCs, neutrophils and platelets", "setting": "[1]; i.v. q3w 13.7 and 18.2 mg/kg, day 21 post treatment", "value": "fully recovered"}, {"measurement": "recovery of WBCs and platelets", "setting": "[1]; p.o. q3w 20 mg/kg, before the second treatment", "value": "fully recovered"}, {"measurement": "recovery of WBCs", "setting": "[1]; [3]", "value": "only partially"}, {"measurement": "recovery of platelets", "setting": "[1]; [3]", "value": "fully recovered"}, {"measurement": "WBCs, neutrophils and platelets", "setting": "[1]; p.o. q3w 20 and 27 mg/kg", "value": "dose-dependent decrease"}, {"measurement": "efficacy of intermittent dosing", "setting": "[2]", "value": "showed efficacy"}]}]}
